Experimental data published in publication PMC12136037, “Type II kinase inhibitors that target Parkinson’s disease–associated LRRK2” (Science Advances, 2025).
Several values for one entry are separate records, joined by “and”; a condition that tells them apart may be missing. Identical values can stand only once.

Experiments:
LRRK2^RCKW = target: T1, LRRK2^RCKW (Homo sapiens, UniProt Q5S007); assay: Biochemical LRRK2 activity assay (PhosphoSense, AssayQuant SOX peptide AQT0615); details: for IC50: LRRK2^RCKW kinase activity, in vitro; for normalized response (LRRK2 activity): normalized to 0% (no kinase) and 100% (no inhibitor) control, two singlicate columns per compound
T1 construct: LRRK2 R1327 to E2527; His6-Z-tag (TEV cleavable) (N, cleaved yes); host or cells: Sf9 insect cells (baculovirus)
T1 sequence (Q5S007 1327-2527): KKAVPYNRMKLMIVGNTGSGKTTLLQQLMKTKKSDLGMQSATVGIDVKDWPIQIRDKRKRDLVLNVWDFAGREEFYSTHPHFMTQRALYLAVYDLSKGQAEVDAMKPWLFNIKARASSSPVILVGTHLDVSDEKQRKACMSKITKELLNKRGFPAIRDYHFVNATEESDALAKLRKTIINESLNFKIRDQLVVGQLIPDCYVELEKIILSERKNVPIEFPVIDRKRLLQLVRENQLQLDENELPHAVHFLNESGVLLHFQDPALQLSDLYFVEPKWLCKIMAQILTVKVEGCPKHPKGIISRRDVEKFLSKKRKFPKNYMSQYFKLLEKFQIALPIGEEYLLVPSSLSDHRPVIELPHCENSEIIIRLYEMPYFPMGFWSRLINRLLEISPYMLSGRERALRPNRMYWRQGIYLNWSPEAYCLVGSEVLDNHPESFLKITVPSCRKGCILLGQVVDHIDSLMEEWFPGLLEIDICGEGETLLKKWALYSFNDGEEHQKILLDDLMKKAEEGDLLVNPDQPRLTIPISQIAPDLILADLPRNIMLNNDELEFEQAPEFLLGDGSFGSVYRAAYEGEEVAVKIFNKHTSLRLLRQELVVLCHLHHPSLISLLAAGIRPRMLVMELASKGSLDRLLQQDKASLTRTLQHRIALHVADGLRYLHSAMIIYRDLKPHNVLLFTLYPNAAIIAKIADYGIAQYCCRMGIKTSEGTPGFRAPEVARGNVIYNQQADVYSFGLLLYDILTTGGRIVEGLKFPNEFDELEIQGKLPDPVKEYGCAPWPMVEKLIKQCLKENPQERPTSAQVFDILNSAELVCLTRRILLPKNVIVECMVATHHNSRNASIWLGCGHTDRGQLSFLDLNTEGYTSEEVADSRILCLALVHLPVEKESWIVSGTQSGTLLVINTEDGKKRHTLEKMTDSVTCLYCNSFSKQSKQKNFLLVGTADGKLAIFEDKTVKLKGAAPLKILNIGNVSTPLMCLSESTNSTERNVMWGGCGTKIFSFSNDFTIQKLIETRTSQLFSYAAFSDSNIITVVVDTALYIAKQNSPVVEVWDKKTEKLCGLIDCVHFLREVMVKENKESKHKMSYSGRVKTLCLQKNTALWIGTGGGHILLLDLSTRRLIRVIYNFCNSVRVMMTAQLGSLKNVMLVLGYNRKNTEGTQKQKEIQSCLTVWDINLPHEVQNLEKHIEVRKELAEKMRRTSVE
How it was run: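 Controls lacked protein and compound (0%) or compound only (100%). IC50 derived by nonlinear regression of normalized response versus log[inhibitor].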

[1] = target: T2, ~100 representative kinases (Homo sapiens, UniProt Q13627); assay: DSF 100 kinase selectivity screen; format: binding; details: Protein DYRK1A; average of three replicates;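 further: compound tested at 20 µM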
T2 construct: Recombinant protein kinase domains with a concentration of 2 μM
Method: (§1) Recombinant protein kinase domains with a concentration of 2 μM were mixed with a 20 μM compound solution in dimethyl sulfoxide (DMSO), 20 mM Hepes (pH 7.5), and 500 mM NaCl. SYPRO Orange (5000×, Invitrogen) was added as a fluorescence probe (1μl/ml). Subsequently, temperature-dependent protein unfolding profiles were measured using the QuantStudio 5 realtime PCR machine (Thermo Fisher Scientific, Waltham, MA, USA). […] The temperature was raised with a step rate of 3°C/min. […] Differences in melting temperature are given as ΔTm values in degrees Celsius. […]

[2] = target: T3, ~100 representative kinases (Homo sapiens, UniProt O94804); assay: DSF 100 kinase selectivity screen; format: binding; details: Protein STK10; DSF; average of three replicates;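 further: compound tested at 20 µM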
T3 construct: Recombinant protein kinase domains with a concentration of 2 μM
T3 sequence (O94804 whole entry, the tested form may be a part): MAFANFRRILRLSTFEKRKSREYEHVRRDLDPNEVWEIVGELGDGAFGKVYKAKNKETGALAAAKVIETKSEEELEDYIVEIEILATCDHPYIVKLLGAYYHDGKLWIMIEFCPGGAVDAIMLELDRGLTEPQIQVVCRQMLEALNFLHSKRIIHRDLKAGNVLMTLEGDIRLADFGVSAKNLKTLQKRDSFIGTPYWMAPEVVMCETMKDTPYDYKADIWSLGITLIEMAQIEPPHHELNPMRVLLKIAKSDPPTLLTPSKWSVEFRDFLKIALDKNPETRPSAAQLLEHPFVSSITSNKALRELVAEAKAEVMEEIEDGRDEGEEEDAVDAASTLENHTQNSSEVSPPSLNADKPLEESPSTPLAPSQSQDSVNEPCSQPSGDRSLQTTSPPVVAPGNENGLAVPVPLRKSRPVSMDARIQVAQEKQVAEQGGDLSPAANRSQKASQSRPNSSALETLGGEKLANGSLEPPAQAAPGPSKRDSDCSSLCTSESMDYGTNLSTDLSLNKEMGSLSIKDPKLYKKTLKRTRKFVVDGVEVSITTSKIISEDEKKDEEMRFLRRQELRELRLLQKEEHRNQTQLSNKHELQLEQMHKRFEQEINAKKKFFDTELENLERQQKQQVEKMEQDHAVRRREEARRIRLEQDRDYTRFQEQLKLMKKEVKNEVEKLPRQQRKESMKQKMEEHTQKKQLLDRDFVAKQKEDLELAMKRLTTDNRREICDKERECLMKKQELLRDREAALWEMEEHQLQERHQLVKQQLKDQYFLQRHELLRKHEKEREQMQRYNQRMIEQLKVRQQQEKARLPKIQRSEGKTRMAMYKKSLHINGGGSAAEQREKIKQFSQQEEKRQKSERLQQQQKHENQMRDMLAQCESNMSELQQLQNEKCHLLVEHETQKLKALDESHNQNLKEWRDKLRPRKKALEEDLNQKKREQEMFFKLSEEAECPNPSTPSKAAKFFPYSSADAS
Method: as §1

[3] = target: T4, ~100 representative kinases (Homo sapiens, UniProt O15264); assay: DSF 100 kinase selectivity screen; format: binding; details: protein MAPK13; average of three replicates;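 further: compound tested at 20 µM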
T4 construct: Recombinant protein kinase domains with a concentration of 2 μM
T4 sequence (O15264 1-365): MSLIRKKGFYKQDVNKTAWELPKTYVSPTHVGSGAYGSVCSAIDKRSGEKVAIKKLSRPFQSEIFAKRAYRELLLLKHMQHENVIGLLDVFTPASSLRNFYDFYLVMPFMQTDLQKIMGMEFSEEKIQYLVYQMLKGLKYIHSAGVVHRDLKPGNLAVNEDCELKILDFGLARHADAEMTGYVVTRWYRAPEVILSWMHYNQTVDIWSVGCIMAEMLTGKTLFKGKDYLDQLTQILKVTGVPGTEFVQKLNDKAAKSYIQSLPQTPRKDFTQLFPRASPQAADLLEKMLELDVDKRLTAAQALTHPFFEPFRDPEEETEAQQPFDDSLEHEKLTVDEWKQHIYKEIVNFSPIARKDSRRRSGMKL
Method: as §1

[4] = target: T5, ~100 representative kinases (Homo sapiens, UniProt Q9Y6E0); assay: DSF 100 kinase selectivity screen; format: binding; details: protein MST3; average of three replicates;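 further: compound tested at 20 µM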
T5 construct: Recombinant protein kinase domains with a concentration of 2 μM
T5 sequence (Q9Y6E0 whole entry, the tested form may be a part): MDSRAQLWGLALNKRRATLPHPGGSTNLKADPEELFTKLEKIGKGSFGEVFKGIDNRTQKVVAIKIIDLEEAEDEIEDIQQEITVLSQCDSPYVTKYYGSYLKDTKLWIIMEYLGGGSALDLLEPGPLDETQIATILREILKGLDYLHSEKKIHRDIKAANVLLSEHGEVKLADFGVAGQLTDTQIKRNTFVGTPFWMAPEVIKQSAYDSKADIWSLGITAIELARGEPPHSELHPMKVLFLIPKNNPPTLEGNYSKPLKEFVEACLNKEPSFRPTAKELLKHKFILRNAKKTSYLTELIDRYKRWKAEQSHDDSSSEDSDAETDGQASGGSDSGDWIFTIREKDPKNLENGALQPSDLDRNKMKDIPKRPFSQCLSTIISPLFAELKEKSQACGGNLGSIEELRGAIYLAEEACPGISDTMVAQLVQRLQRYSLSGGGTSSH
Method: as §1

SMILES	IC50 (LRRK2^RCKW)	normalized response (LRRK2 activity) (LRRK2^RCKW; log[inhibitor(mol)] -5.12494)	normalized response (LRRK2 activity) (LRRK2^RCKW; log[inhibitor(mol)] -5.60206)	normalized response (LRRK2 activity) (LRRK2^RCKW; log[inhibitor(mol)] -6.30103)	normalized response (LRRK2 activity) (LRRK2^RCKW; log[inhibitor(mol)] -6.90309)	normalized response (LRRK2 activity) (LRRK2^RCKW; log[inhibitor(mol)] -7.30103)	normalized response (LRRK2 activity) (LRRK2^RCKW; log[inhibitor(mol)] -7.60206)	normalized response (LRRK2 activity) (LRRK2^RCKW; log[inhibitor(mol)] -8.09691)	normalized response (LRRK2 activity) (LRRK2^RCKW; log[inhibitor(mol)] -8.61979)	normalized response (LRRK2 activity) (LRRK2^RCKW; log[inhibitor(mol)] -9.09691)	normalized response (LRRK2 activity) (LRRK2^RCKW; log[inhibitor(mol)] -9.39794)	dTm [1]	dTm [2]	dTm [3]	dTm [4]
Cc1ccc(-n2nc(C(C)(C)C)cc2NC(=O)Nc2cccc(-c3c[nH]c4ncnc(N5CCOCC5)c34)c2)cc1 [Compound 29]	20.2 ± 0.01 nM	-15.0137% and -16.6919%	-14.1253% and -13.1052%	-11.8493% and -10.5551%	-5.6961% and -4.1002%	9.533% and 17.3374%	45.8935% and 45.9868%	84.3047% and 80.6906%	106.121% and 110.711%	109.51% and 103.466%	104.536% and 110.261%	2.14 K	20.37 K	18.71 K	6.78 K
Cc1ccc(-n2nc(C(C)(C)C)cc2NC(=O)Nc2cccc(-c3c[nH]c4nc(Cl)nc(N5CCOCC5)c34)c2)cc1 [Compound 30]	135 ± 2 nM	-8.095% and -6.809%	75.5755% and 70.6669%	8.742% and 11.7467%	50.7191% and 51.183%	75.6682% and 82.0657%	86.9301% and 90.6015%	94.0388% and 92.0065%	101.276% and 93.5219%	104.187% and 96.8267%	100.869% and 63.9823%	-4.19 K	13.38 K	9.71 K	0.96 K
CC(=O)N1CCN(c2nc(Cl)nc3[nH]cc(-c4cccc(NC(=O)Nc5cc(C(C)(C)C)nn5-c5ccc(C)cc5)c4)c23)CC1 [Compound 31]	82.4 ± 19 nM	-8.142% and -8.098%	-6.069% and -3.667%	1.516% and 5.662%	27.0499% and 37.6124%	59.8343% and 70.8356%	80.8168% and 85.4399%	99.1997% and 109.801%	111.451% and 122.71%	117.928% and 123.215%	115.57% and 119.935%	-1.38 K	13.28 K	11.86 K	3.03 K
CCSc1nc(NC)c2c(-c3cccc(NC(=O)Nc4cc(C(C)(C)C)nn4-c4ccc(C)cc4)c3)c[nH]c2n1 [Compound 32]	296 ± 39 nM	-7.459% and -2.016%	19.5756% and 16.293%	31.5753% and 35.852%	72.0233% and 73.3531%	83.8241% and 86.8594%	89.687% and 98.7972%	90.4381% and 87.8004%	96.4865% and 91.0964%	94.4983% and 98.9209%	96.9901% and 60.5361%	0.57 K	8.61 K	9.18 K	-1.49 K
COc1cc(C(=O)N2CCOCC2)c(F)cc1Nc1nc(N(C)C)c2c(Cl)c[nH]c2n1 [Compound 36]	4.96 ± 0.11 nM	-4.747% and -10.7141%	-11.8877% and -7.237%	-22.7354% and -19.8398%	-16.5877% and -9.211%	-3.623% and 0.9398%	12.0233% and 5.13%	39.1206% and 42.4988%	81.2335% and 75.689%	74.4661% and 78.5518%	100.642% and 97.3515%	3.71 K	-1.96 K	0.85 K	-3.75 K
